According to patent publication US9273276B2, “Devices and methods for pharmacokinetic-based cell culture system” (priority 2001, dated 2016):
“Also recorded” adds a separate entry of the source.

Assays:
[1] = system: HCT-116 human colon cancer cells; settings: for cell death of HCT-116 cells on chip without liver compartment cells: chips seeded with HCT-116 cells only, no cells in liver compartment, 24 hours
Description: FIG. 16 Tegafur dose response. […] The chips were treated with indicated concentrations of tegafur for 24 hours. The first graph (FIG. 16A) is a plot of percentage dead cells vs. tegafur or 5-FU concentration after 24 hours of re-circulation on the chip. The second graph (FIG. 16B) is a similar dose response using a traditional in vitro cell culture assay with HCT 116 cells using a 48 hour exposure. HCT-116 cells were seeded on poly-lysine treated glass coverslips and exposed to either tegafur or 5-FU at the indicated concentrations. After a 48 hr incubation, coverslips were treated as described above and the percentage of cell death was determined.
(§1) LIVE/DEAD stain is a two-component stain consisting of calcein AM and ethidium homodimer. Living cells actively hydrolyze the acetoxymethyl ester (AM) moiety of calcein AM to produce bright green fluorescence of calcein. In contrast, cells that have compromised membrane integrity allow the normally membrane impermeant ethidium homodimer to stain the nucleus of dead or dying cells fluorescent red. The cell permeant nuclear stain, Hoechst 33342 acts as a general stain for all cells. Together with the appropriate filter sets, living cells fluoresce green, dying or dead cells red, and all cells are quantified by a blue nuclear fluorescence. For experiments described herein, trypan blue was used at 0.2% (w/v), calcein AM at 1:20,000, propidium iodide at 1:5,000, and Hoechst 33342 at 10 μg/ml. Cells were visualized with a M2Bio stereofluorescence microscope (Zeiss). All experiments were repeated at least three times and measurements done in triplicate.
[…] Tegafur was added to the re-circulating medium at various concentrations for 24 hours and the cells labeled with Hoechst 33342, a membrane permeable DNA dye, and ethidium homodimer, a membrane impermeable DNA dye (see Methods Section).

[2] = system: HCT-116 cells; experiment: Traditional in vitro cell culture assay, HCT-116 cells on poly-lysine treated glass coverslips; assay type: cell-based, human; settings: for cell death of HCT-116 cells, traditional cell culture assay: coverslips, no liver cells, 48 hr exposure
Description: FIG. 16 Tegafur dose response. Chips were seeded with HepG2-C3A cells in the liver compartment and HCT-116 colon cancer cells in the target tissues compartment. The chips were treated with indicated concentrations of tegafur for 24 hours. The first graph (FIG. 16A) is a plot of percentage dead cells vs. tegafur or 5-FU concentration after 24 hours of re-circulation on the chip. The second graph (FIG. 16B) is a similar dose response using a traditional in vitro cell culture assay with HCT 116 cells using a 48 hour exposure. HCT-116 cells were seeded on poly-lysine treated glass coverslips and exposed to either tegafur or 5-FU at the indicated concentrations. After a 48 hr incubation, coverslips were treated as described above and the percentage of cell death was determined.
To measure the cytotoxic effects of tegafur against colon cancer cells, the microscale chip was prepared with HepG2-C3A cells in the liver compartment and HCT-116 human colon cancer cells in the target tissue compartment. Tegafur was added to the re-circulating medium at various concentrations for 24 hours and the cells labeled with Hoechst 33342, a membrane permeable DNA dye, and ethidium homodimer, a membrane impermeable DNA dye (see Methods Section).

[3] = system: HepG2/C3A cells; experiment: LIVE/DEAD assay, HepG2/C3A cells on poly-D-lysine treated glass coverslips; assay type: cell-based, human; settings: 1 μM, 24 hours
Excerpt: as §1
The LIVE/DEAD assay was optimized (see Methods section) using cells grown on glass coverslips. Briefly, HepG2/C3A cells were seeded onto poly-D-lysine treated glass coverslips and treated with and without 1 μM staurosporine for 24 hours. […]

[4] = system: HCT116 cells; experiment: LIVE/DEAD cytotoxicity assay on the microscale chip system (HepG2/C3A liver, HCT116 target tissues); assay type: cell-based, human; settings: 1 μM, 24 hour treatment, compared to untreated control cell chips
Excerpt: as §1
Two different assays to detect apoptosis were investigated. The first assay was the immunofluorescence-based terminal deoxynucleotidyl transferase BrdU nick end labeling (TUNEL) technique available in kit form as APOPTAG™ (Intergen Co., MA) (see Methods section).

[5] = system: HepG2/C3A cells; experiment: APOPTAG (TUNEL) apoptosis assay, HepG2/C3A cells on glass coverslips; assay type: cell-based, human; settings: 1 μM, 24-hour incubation, compared to untreated controls
Excerpt: (§2) In contrast to annexin V labeling, the APOPTAG™ kit (Intergen Co., MA) uses terminal deoxynucleotidyl transferase to label free 3′-OH DNA termini exposed during apoptotic DNA degradation and visualization using immunofluorescence (Li, X., Traganos, F., Melamed, M. R., and Darzynkiewicz, Z. (1995). Single-step procedure for labeling DNA strand breaks with flourescein- or BODIPY-conjugated deoxynucleotides: detection of apoptosis and bromodeoxyuridine incorporation. Cytometry 20, 172-180). Although this method is highly specific for apoptosis, the procedure cannot be done on-chip due to the fixation and incubation steps. Briefly, microscale chips were run under specified experimental conditions, the cell chips were removed from their housing units, fixed in 1% paraformaldehyde and processed with the APOPTAG™ kit using the manufacturer's protocol.
(§3) Two different assays to detect apoptosis were investigated. The first assay was the immunofluorescence-based terminal deoxynucleotidyl transferase […] nick end labeling (TUNEL) technique available in kit form as APOPTAG™ (Intergen Co., MA) (see Methods section). The assay was first optimized using cells grown on glass coverslips. Briefly, HepG2/C3A cells were seeded onto poly-D-lysine treated glass coverslips and treated with and without staurosporine. Coverslips were processed as described (see Methods section).

[6] = system: HCT116 cells; experiment: APOPTAG (TUNEL) apoptosis assay on microscale chip (HepG2/C3A liver, HCT116 target tissues); assay type: cell-based, human; settings: 1 μM, 24 hour exposure, compared to untreated controls
Excerpt: as §2, §3

[7] = system: HepG2/C3A cells in the liver compartment and HCT116 cells in the target tissues compartment; experiment: Annexin V-FITC apoptosis assay on microscale chip system; assay type: cell-based, human; settings: 1 μM, 6-hour treatment, compared to untreated control cell chips
Description: With the microscale chip, annexin V-FITC labeling was visualized directly on-chip, by first flushing the system with PBS, then recirculating annexin V-FITC (10 μg/ml in annexin V binding buffer, Clontech) for 30 min. Cells were then visualized directly using a FITC filter set.
Briefly, the microscale chip cell chips were seeded with HepG2/C3A cells in the liver compartment and HCT116 cells in the target tissues compartment. Cell chips were loaded onto the microscale chip system and treated with and without 1 μM staurosporine as described above. After a 6-hour incubation, the re-circulating medium was switched to PBS containing Annexin V-FITC and Hoechst 33342 and allowed to flow through the system for 30 minutes. Cell chips were removed from the acrylic housing and visualized under a fluorescent microscope. Cells were visualized under a fluorescent microscope and fluorescent images of identical fields were obtained using the appropriate filter sets.

[8] = system: HT29 human colon cancer cells; experiment: Microscale chip, HepG2-C3A cells in liver compartment and HT29 cells in target tissue compartment, LIVE/DEAD staining; assay type: cell-based; settings: 24 hours; for efficacy against HT-29 colon cancer cells on chip: HepG2-C3A cells in liver compartment, HT-29 cells with mutant p53
Excerpt: as §1

**Q.** What does the source list for `O=c1[nH]cc(F)c(=O)[nH]1` [5-FU, 5-fluorouracil]?
**A.** cell death of HCT-116 cells on chip without liver compartment cells [1]: caused substantial cell death; exposure before cytotoxicity was observed, traditional cell culture assay ([2]; HCT-116 cells on coverslips): ≥ 48 h; cell death of HCT-116 cells, traditional cell culture assay [2]: triggered cell death

**Q.** How did the “cell death of HepG2/C3A cells (LIVE/DEAD)” value [3] turn out when `CN[C@@H]1C[C@H]2O[C@@](C)([C@@H]1OC)n1c3ccccc3c3c4c(c5c6ccccc6n2c5c31)C(=O)NC4` [Staurosporine] was run?
**A.** The value was “clearly cause cell death”.

**Q.** And the “cell death of HCT116 cells on chip (LIVE/DEAD)” value [4]?
**A.** The value was “Significant cell death; also recorded: significant apoptosis (or cytotoxicity)”.

**Q.** And the “apoptosis of HepG2/C3A cells (APOPTAG)” value [5]?
**A.** The value was “caused significant apoptosis”.

**Q.** What about the “apoptosis of HCT116 cells on chip (APOPTAG)” value [6] of the same compound?
**A.** Its value is “significant apoptosis (or cytotoxicity)”.

**Q.** What about the “apoptosis on chip (annexin V-FITC)” value [7] of the same compound?
**A.** Its value is “caused significant apoptosis”.

**Q.** What does the source list for `CC1=C(CC(=O)O)c2cc(F)ccc2/C1=C\c1ccc([S+](C)[O-])cc1` (centres unmarked) [Sulindac, sulindac sulfoxide]?
**A.** efficacy against HT-29 colon cancer cells on chip [8]: effective; cell death of HT29 cells in target tissue compartment ([8]; One hundred micromoles, in the absence of the HepG2-C3A liver cells): minimal levels of cell death

**Q.** How did the “efficacy against HT-29 colon cancer cells on chip” value [8] turn out when `O=c1[nH]c(=O)n(C2CCCO2)cc1F` (centres unmarked) [Tegafur, 5-fluoro-1-(2-tetrahydrofuryl)-2,4(1H,3H)-pyrimidi-nedione] was run?
**A.** Its value is “ineffective”.

**Q.** What about the “cytotoxicity to HCT-116 cells on chip” value [1] of the same compound?
**A.** The value was “cytotoxic to HCT-1-16-cells in a dose dependent fashion”.

**Q.** And the “cell death of HCT-116 cells on chip without liver compartment cells” value [1]?
**A.** Its value is “did not cause significant cell death”.

**Q.** What about the “cell death of HCT-116 cells, traditional cell culture assay” value [2] of the same compound?
**A.** The value was “ineffective”.
